From US20260364213A1, “RADIOLABELED COMPOUNDS OF TRIMETHOPRIM AND USES THEREOF” (THE TRUSTEES OF THE UNIVERSITY OF PENNSYLVANIA, priority 2023, published 2026)
Entries after “also recorded” stand apart in the source; their conditions may differ.

Assays:
eDHFR = target: T1, eDHFR (Escherichia coli, UniProt P0ABQ4); conditions: eDHFR+ cells pre-incubated with 10 μM unlabeled TMP
T1 sequence (P0ABQ4 1-159): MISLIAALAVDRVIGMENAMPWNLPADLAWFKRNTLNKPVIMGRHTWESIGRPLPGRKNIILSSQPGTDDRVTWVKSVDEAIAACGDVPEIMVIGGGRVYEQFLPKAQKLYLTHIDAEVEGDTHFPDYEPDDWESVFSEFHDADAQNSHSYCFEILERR

Serum stability in FBS = type: in vitro ADME; conditions: FBS at 37 °C, 72 hours, radio-TLC
Method: In vitro serum stability of was performed by adding the [^131I]mI-TMP (50 μL, 1.85 MBq) to fetal bovine serum (500 μL). The mixture was then incubated in a ThermoMixer (800 rpm) at 37 °C, and deiodination was analyzed by radio-TLC (10% NH40Ac:MeOH=3:7) at 0, 24, and 72 h. In this condition, free I-131 moved to solvent front whereas intact [^131I]I-TMP remained at the origin.

[1] = system: primary human hepatocytes; assay: Hepatocyte spheroid assay (liver metabolite study); type: in vitro ADME
Method: Cryopreserved primary human hepatocytes were acquired from ThermoFisher. To each well of a 96 well ultra-low attachment U-bottom plate, 2,000 cells were plated in 200 μL William's E Medium (no phenol red, 20% FBS, 1% penicillin-streptomycin, 1% insulin-transferrin-selenium solution, […], 1% L-glutamine). The plate was centrifuged at 300 rpm for 2 minutes and then incubated without disturbance. After 5 days, 100 μL of spent media was removed and replaced with fresh media. […] The supernatant was then removed and analyzed on an Agilent 1260 Infinity II LC system equipped with an Eckert & Ziegler FlowCountPRO detector.
Specifically, 2,000 cells were plated in 200 μL William's E Medium (no phenol red, 20% FBS, 1% penicillin-streptomycin, 1% insulin-transferrin-selenium solution, […], 1% L-glutamine). […] The supernatant was then removed and analyzed on an Agilent 1260 Infinity II LC system equipped with an Eckert & Ziegler FlowCountPRO detector.
Specifically, cryopreserved hepatocytes were thawed and diluted 1:10 in a 15 mL conical tube with warm culture media (William's E Medium, no phenol red, 20% FBS, 1% penicillin-streptomycin, 1% insulin-transferrin-selenium solution, […], 1% L-glutamine). […] Cells were counted and diluted to a concentration of 10,000 live cells/mL. […] The supernatant was transferred into an autosampler vial and analyzed by HPLC.

I45 eDHFR-FLAG tumors = assay: I45 RLT, tumor growth in CD1 nude mice; type: in vivo, human; conditions: 18.5 MBq/mouse i.v. single dose, n=7; listed as [^131I]I-TMP
Method: RLT in I45 tumors. […] Briefly, I45 eDHFR-FLAG and WT cells were xenografted into the shoulders of female athymic CD1-Foxn1nu mice. The tumors were allowed to grow for ~2 weeks. Subsequently, [^131I]I-TMP was administered intravenously and a limited biodistribution study was performed. […] To assess for cytotoxicity in I45 mesothelioma cells, I45 WT and I45 eDHFR tumors were separately xenografted into CD1-Foxn1nu mice and either [^131I]I-TMP or saline was administered to form 4 experimental cohorts (n=7).
[^131I]I-TMPI Administration, and Monitoring. Female CD1 nu/nu mice, aged six to eight weeks, underwent subcutaneous xenografting with 1×10^6 I45 WT and I45 eDHFR-Flag cells on the shoulder. The cells were suspended in a 1:1 volume ratio of 75 μL RPMI complete medium and 75 μL Matrigel Matrix (Corning, 354234). Both I45 WT and I45 eDHFR-Flag mice were randomly divided into two groups, with each group consisting of 7 mice. Tumors were grown for 2 weeks. […] [^131I]I-TMP, diluted in 100 μL saline, was injected into two groups containing I45 WT and I45 eDHFR-Flag xenografts on day 9 of initial tumor inoculation. The remaining two groups of I45 WT and I45 eDHFR-Flag xenografts were injected with saline. Tumor growth was monitored from two days before to 10 days after [^131I]I-TMP injection, with measurements taken every other day using calipers. […]

SMILES | uptake under blocked conditions (eDHFR) | serum stability, deiodination (Serum stability in FBS) | de-iodination in hepatocyte culture ([1]; after 24 hours) | de-iodination with CYP450 inhibitor ([1]; with 1-aminobenzotriazole (100 μM)) | tumor growth / in vivo cytotoxicity, I45 eDHFR tumors (I45 eDHFR-FLAG tumors)
COc1cc(Cc2cnc(N)nc2N)cc(I)c1OC [[^131I]mI-TMP, 5-(3-iodo-4,5-dimethoxybenzyl)pyrimidine-2,4-diamine] | reduced uptake | without any detectable deiodination | minor de-iodination | could be inhibited | –
COc1cc(Cc2cnc(N)nc2N)cc([131I])c1OC [[^131I]mI-TMP, 5-(3-iodo-4,5-dimethoxybenzyl)pyrimidine-2,4-diamine] | – | – | – | – | clear reduction in tumor growth; also recorded: shows in vivo cytotoxicity toward eDHFR-expressing I45 cells
